Data taken from paper PMC12383145, “Fluorescent Peptides Internalize HeLa Cells and Kill Multidrug-Resistant Clinical Bacterial Isolates” (Antibiotics, 2025).
“And” between values parts separate entries of the source, which are not always exact repeats. Equal values may be shown once. Read-outs that look alike come from different tables or passages of the source. No end group written: not given here.

What was measured:
Format in all cases: cell-based
HeLa cells = assay: MTT cytotoxicity assay in HeLa cells; details: HeLa cells, 200 µg/mL; listed as palindromic peptide
Protocol: (§1) MTT assays were conducted in HeLa cells to evaluate the effect of fluorescent probe incorporation on the in vitro cytotoxic activity of the parent non-conjugated peptides. The cytotoxic effect of peptides 1, Abz-1 RhB-1, 2, and RhB-2 in HeLa cells was peptide concentration-dependent, with the highest anticancer activity observed at 200 µg/mL. Incorporation of 2-Abz and RhB at the N-terminal end reduced cytotoxic activity, while the binding of 2-Abz at the C-terminal end or FAM at the N-terminal end drastically diminished anticancer activity (Table 4).

[1] = MTT cytotoxicity assay in HeLa cells; details: HeLa cells, MTT; read-out: Cytotoxic Activity (IC50)
Protocol: as §1

[2] = tested on: E. coli clinical isolate 1004 (susceptible); details: E. coli clinical isolate 1004
Protocol: (§2) E. coli isolates 1004 (susceptible), 129797 (resistant), and 301755 (MDR) were selected for evaluation. Isolate 1004 was sensitive to all antibiotics tested. […] These findings identify it as a multidrug-resistant (MDR) strain and an extended-spectrum beta-lactamase (ESBL)-producing bacterium. For S. aureus, isolates 109095, 117719, and 124653 were evaluated. All three were resistant to penicillin, indicating beta-lactamase production mediated by the blaZ gene. Studies have shown that up to 90% of S. aureus isolates worldwide are penicillin-resistant, which implies that this antibiotic is ineffective in infections caused by this pathogen. […] Isolate 124653 was resistant to penicillin, tetracycline, and erythromycin, with the latter belonging to the group of macrolides, antibiotics that inhibit protein synthesis through interaction with the 50S […] subunit. For E. faecalis three isolates were selected: strains 213 (sensitive to all the antibiotics tested), strain 82 (resistant to streptomycin), and strain 179 (resistant to gentamicin). These clinical isolates were selected to assess the antimicrobial activity of the peptide RWQWRWQWR and its analogues conjugated to fluorescent molecules in strains against strains with susceptibility profiles.
(§3) The analysis of synthesized peptides in ATCC reference strains and susceptible, resistant, and multidrug-resistant (MDR) clinical isolates was performed. The clinical isolates were obtained from the National Cancer Institute collection and were previously identified and antibiogrammed using the VITEK system. Additionally, the strains were characterized by MALDI-TOF. The strains were re-primed onto trypticase soy agar and subsequently preserved in Brain–Heart Infusion (BHI) broth containing 20% glycerol. For the MIC and MBC assays, the strains were reactivated and cultured in BHI until they reached their exponential growth phase.
(§4) The minimum inhibitory concentration (MIC) of the peptides was determined by the broth microdilution technique, according to the Clinical and Laboratory Standards Institute (CLSI) guidelines, as previously described. Briefly, bacterial strains were incubated in BHI broth at 37 °C until they reached the exponential growth phase, and inocula were adjusted to 5 × 10^6 CFU/mL using calibration curves. Serial dilutions of the peptides to be evaluated in 96-well plates were made in 90 µL of Mueller Hinton broth at concentrations ranging from 200 to 6.25 µg/mL, and 10 µL of the inoculum adjusted to 5 × 10^6 CFU/mL was added. Finally, the plates were incubated at 37 °C for 24 h, and the absorbance at 620 nm was read. As a negative control, CMH, distilled water, and 10 µL of inoculum were used; for the positive control, vancomycin was used for Gram-positive strains and ciprofloxacin for Gram-negative strains at the MICs dictated by the CLSI; as a technical control, CMH with peptone water was used, and for the growth control, CMH was used with 10 µL of inoculum.
(§5) To determine the minimum bactericidal concentration (MBC), the 96-well plates where the MIC was determined were used as a starting point. From these, an aliquot of the controls and those wells where no apparent bacterial growth was observed were spotted onto trypticase soy agar plates. The plates were incubated at 37 °C for 24 h, and the reading was taken, identifying the lowest concentration of the peptide where there was no bacterial growth as the MBC.

[3] = tested on: E. coli clinical isolate 129797 (resistant); details: E. coli clinical isolate 129797
Protocol: as §2, §3, §4, §5

[4] = tested on: E. faecalis clinical isolate 82; details: E. faecalis clinical isolate 82
Protocol: as §2, §3, §4, §5

[5] = tested on: E. faecalis clinical isolate 213; details: E. faecalis clinical isolate 213
Protocol: as §2, §3, §4, §5

[6] = tested on: clinical isolates of E. coli; details: stated for the E. coli clinical isolates together
Protocol: as §2, §3, §4, §5

[7] = tested on: E. coli clinical isolate 301755 (MDR); details: E. coli clinical isolate 301755
Protocol: as §2, §3, §4, §5

[8] = tested on: E. faecalis clinical isolate 179; details: E. faecalis clinical isolate 179
Protocol: as §2, §3, §4, §5

[9] = tested on: S. aureus clinical isolate 109095; details: S. aureus clinical isolate 109095
Protocol: as §2, §3, §4, §5

[10] = tested on: S. aureus clinical isolate 124653; details: S. aureus clinical isolate 124653
Protocol: as §2, §3, §4, §5

[11] = tested on: S. aureus clinical isolate 11719; details: S. aureus clinical isolate 11719
E. coli ATCC 25922 = details: E. coli ATCC 25922
Protocol: as §4, §5

[12] = tested on: K. pneumoniae ATCC 700603; details: K. pneumoniae ATCC 700603
Protocol: as §4, §5

P. aeruginosa ATCC 27853 = details: P. aeruginosa ATCC 27853
Protocol: as §4, §5

E. faecalis ATCC 29212 = details: E. faecalis ATCC 29212
Protocol: as §4, §5

S. aureus ATCC 25923 = details: S. aureus ATCC 25923
Protocol: as §4, §5

Hemolysis assay = assay: Hemolysis assay
Protocol: Whole blood was collected into EDTA tubes and centrifuged at 2500 rpm for 10 min. The plasma and buffy coat were removed, and the erythrocytes were washed three times with 0.9% saline to yield a 4% cell suspension. In 96-well plates, 100 µL of peptide dilutions (6.25–200 µg/mL) were prepared in triplicate, and 100 µL of the erythrocyte suspension was added (final hematocrit 2%). Plates were incubated at 37 °C for 2 h, and then centrifuged again at 2500 rpm for 10 min. A 100 µL aliquot of the supernatant was transferred to a fresh plate, and absorbance was measured at 450 nm. Saline and 1× Triton X-100 served as the negative and positive controls, respectively. Hemolysis (%) was calculated as follows: %hemolysis=treatment absorbance−saline absorbance/1×triton absorbance−saline absorbance

[13] = tested on: clinical isolates of S. aureus; details: stated for the S. aureus clinical isolates together
Protocol: as §2, with “For E. faecalis three isolates were selected: strains 213 (sensitive to all the antibiotics tested), strain 82 (resistant to streptomycin), and strain 179 (resistant to gentamicin). These clinical isolates were selected to assess the antimicrobial activity of the peptide RWQWRWQWR and its analogues conjugated to fluorescent molecules in strains against strains with susceptibility profiles.” left out
The minimum inhibitory concentration (MIC) of the peptides was determined by the broth microdilution technique, according to the Clinical and Laboratory Standards Institute (CLSI) guidelines, as previously described. […] Serial dilutions of the peptides to be evaluated in 96-well plates were made in 90 µL of Mueller Hinton broth at concentrations ranging from 200 to 6.25 µg/mL, and 10 µL of the inoculum adjusted to 5 × 10^6 CFU/mL was added. Finally, the plates were incubated at 37 °C for 24 h, and the absorbance at 620 nm was read. […]

Substance: RWQWRWQWR-NH2 [peptide 1, RWQWRWQWR]
- cell viability (HeLa cells): about 20%
- IC50 [1]: 77 µg/mL and 52 µM
- Minimal bactericidal concentration (MBC) [2]: > 135 µM
- Minimal inhibitory concentration (MIC) [2]: 17 µM
- Minimal inhibitory concentration (MIC) [3]: 34/34 µM
- Minimal bactericidal concentration (MBC) [4]: 67/67 µM
- Minimal bactericidal concentration (MBC) [5]: 135 µM
- Minimal inhibitory concentration (MIC) [5]: 135 µM
- MIC [6]: 17 to 34 µM
- Minimal bactericidal concentration (MBC) [7]: 67 µM
- Minimal inhibitory concentration (MIC) [7]: 34 µM
- Minimal bactericidal concentration (MBC) [8]: 135 µM
- Minimal inhibitory concentration (MIC) [8]: 135 µM
- Minimal bactericidal concentration (MBC) [9]: 135 µM
- Minimal inhibitory concentration (MIC) [9]: 135 µM
- Minimal bactericidal concentration (MBC) [10]: > 135 µM
- Minimal inhibitory concentration (MIC) [10]: 135 µM
- Minimal bactericidal concentration (MBC) [11]: > 135 µM
- Minimal inhibitory concentration (MIC) [11]: 135 µM
- Minimal bactericidal concentration (MBC) (E. coli ATCC 25922): 34 µM
- Minimal inhibitory concentration (MIC) (E. coli ATCC 25922): 17 µM
- Minimal bactericidal concentration (MBC) [12]: 135 µM
- Minimal inhibitory concentration (MIC) [12]: 67 µM
- Minimal bactericidal concentration (MBC) (P. aeruginosa ATCC 27853): > 135 µM
- Minimal inhibitory concentration (MIC) (P. aeruginosa ATCC 27853): 67 µM
- Minimal bactericidal concentration (MBC) (E. faecalis ATCC 29212): > 135 µM
- Minimal inhibitory concentration (MIC) (E. faecalis ATCC 29212): 135 µM
- Minimal bactericidal concentration (MBC) (S. aureus ATCC 25923): 34 µM
- Minimal inhibitory concentration (MIC) (S. aureus ATCC 25923): 17 µM
- hemolysis (Hemolysis assay; at 200 µg/mL (highest tested concentration), 2 h, 37 °C, read-out: hemolysis): 4.5%
- hemolysis (Hemolysis assay; at the lowest MIC concentration, read-out: Percentage of hemolysis): 1.1%
- selectivity ratio (Hemolysis assay; peptide concentration at 10% hemolysis / IC50 in HeLa cells, read-out: Selectivity index): > 3
- MIC [13]: 135 µM
